One assay deals with T1, human TPIIle170Val (Homo sapiens, UniProt P60174, I171V).
T1 construct: gene TPI1; 6x-histidine tagged human TPI
Put plainly: enzyme-coupled activity assay with PEP titration; thermal shift ΔTm […]°C. In kind it is biochemical.

The target in assay [1] is T2, human triosephosphate isomerase (TPI) (Homo sapiens, UniProt P60174).
T2 construct: gene TPI1; 6x-histidine tagged wild-type human TPI
Put plainly: enzyme-coupled activity assay with PEP titration (IC50 […]); thermal shift ΔTm […]°C. In kind it is biochemical.

Another assay concerns the target T3, human TPIIle170Thr (Homo sapiens, UniProt P60174, I171T).
T3 construct: gene TPI1; 6x-histidine tagged human TPI
Put plainly: enzyme-coupled activity assay with PEP titration; thermal shift ΔTm […]°C. It counts as biochemical.

Assay [2] deals with T4, triosephosphate isomerase (TPI) (Oryctolagus cuniculus, UniProt P00939).
T4 construct: gene TPI1; Native rabbit muscle TPI (Sigma); homodimer, 246 of 250 amino acids modelled
The experiment in a line: co-crystal structure at […] Å. In kind it is binding.

Each structure is given as a SMILES string.

T1 sequence (P60174 2-249 I171V): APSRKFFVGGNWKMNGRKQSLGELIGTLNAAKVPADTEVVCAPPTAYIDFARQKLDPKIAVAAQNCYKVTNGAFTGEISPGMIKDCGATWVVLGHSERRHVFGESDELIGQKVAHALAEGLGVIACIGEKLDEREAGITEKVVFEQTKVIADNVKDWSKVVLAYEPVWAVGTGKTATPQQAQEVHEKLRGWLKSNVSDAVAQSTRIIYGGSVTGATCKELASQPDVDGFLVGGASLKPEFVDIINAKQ
T3 sequence (P60174 2-249 I171T): as the sequence (P60174 2-249 I171V) above, with V170T counted along it
T2 sequence (P60174 2-249): as the sequence (P60174 2-249 I171V) above, with V170I counted along it
T4 sequence (P00939 2-249): as the sequence (P60174 2-249 I171V) above, with Q19K, S20N, G26T, A118S, V170I counted along it

Turning to `C=C(OP(=O)(O)O)C(=O)O` [PEP, phosphoenolpyruvate], the IC50 at human TPIIle170Val was 1930 µM; on human TPIIle170Thr, 1540 µM. Besides, the Ki in assay [1] turned out to be 230 µM. The “co-crystal structure at 1.55 Å” value in assay [2] was “The electron density map gave a clearly defined and unambiguous shape for PEP bound to the active sites”.

The record behind these values is PMC3971408, “Inhibition of triosephosphate isomerase by phosphoenolpyruvate in the feedback-regulation of glycolysis” (Open Biology, 2014).
